Measurements reported in BindingDB's records for doi:10.7270/Q21G0K51 (University of Carthage, 2017).

Tests used:
[1] = target: Carboxylic ester hydrolase (Equus caballus, UniProt Q9N1N9); assay: Cholinesterase Activity Assay
Procedure: (§1) The eight synthesized dialkyl-3-cyanopropylphosphates (3a-h) were dissolved in0.01 M dimethyl sulphoxide and then diluted in demineralized water to 1 mM and 0.1 mM.

[2] = target: Acetylcholinesterase (Electrophorus electricus, UniProt O42275); assay: Cholinesterase Activity Assay
Procedure: as §1

Sequence of Carboxylic ester hydrolase (Q9N1N9 whole entry): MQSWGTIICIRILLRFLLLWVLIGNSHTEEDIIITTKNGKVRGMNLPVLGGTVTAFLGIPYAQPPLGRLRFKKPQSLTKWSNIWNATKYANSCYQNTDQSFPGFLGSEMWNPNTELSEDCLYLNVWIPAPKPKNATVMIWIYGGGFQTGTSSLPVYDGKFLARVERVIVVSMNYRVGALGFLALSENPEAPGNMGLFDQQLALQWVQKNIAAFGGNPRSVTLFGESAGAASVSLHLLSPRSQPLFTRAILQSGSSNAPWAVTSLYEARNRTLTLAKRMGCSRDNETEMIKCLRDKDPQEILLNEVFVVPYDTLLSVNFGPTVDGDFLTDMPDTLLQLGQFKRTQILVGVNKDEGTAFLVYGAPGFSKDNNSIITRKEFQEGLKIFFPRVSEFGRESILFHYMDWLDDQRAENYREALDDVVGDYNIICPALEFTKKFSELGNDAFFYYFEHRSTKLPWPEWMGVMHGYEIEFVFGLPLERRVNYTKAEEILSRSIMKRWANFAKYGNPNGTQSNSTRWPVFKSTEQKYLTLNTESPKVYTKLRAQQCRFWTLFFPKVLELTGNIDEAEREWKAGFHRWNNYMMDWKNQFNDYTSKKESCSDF
Sequence of Acetylcholinesterase (O42275 whole entry): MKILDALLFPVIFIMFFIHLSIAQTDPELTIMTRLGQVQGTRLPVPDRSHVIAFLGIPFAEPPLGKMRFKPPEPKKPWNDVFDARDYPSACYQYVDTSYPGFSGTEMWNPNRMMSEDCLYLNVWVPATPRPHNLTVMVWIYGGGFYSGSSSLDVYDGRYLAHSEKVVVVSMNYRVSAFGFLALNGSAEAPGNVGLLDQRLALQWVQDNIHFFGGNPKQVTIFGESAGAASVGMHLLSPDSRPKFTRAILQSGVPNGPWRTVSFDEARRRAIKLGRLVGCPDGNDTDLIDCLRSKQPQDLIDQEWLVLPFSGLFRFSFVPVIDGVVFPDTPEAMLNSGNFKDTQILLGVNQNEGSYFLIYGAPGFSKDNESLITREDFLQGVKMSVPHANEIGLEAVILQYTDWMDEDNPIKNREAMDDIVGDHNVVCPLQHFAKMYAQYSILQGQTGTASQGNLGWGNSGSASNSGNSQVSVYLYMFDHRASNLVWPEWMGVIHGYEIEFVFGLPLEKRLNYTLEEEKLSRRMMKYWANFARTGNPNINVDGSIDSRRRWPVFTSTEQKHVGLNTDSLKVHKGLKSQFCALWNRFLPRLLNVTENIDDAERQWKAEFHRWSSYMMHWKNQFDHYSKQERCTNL

SMILES | IC50 [1] [µM] | IC50 [2] [µM]
CCOP(=O)(OCC)OC(CCC#N)c1ccc(OC)cc1 (stereo unspecified) [Diethyl-3-cyano-1-(4-methoxyphenyl)propylphosphate (3e)] | 20.7 | 53.7
CCOP(=O)(OCC)OC(CCC#N)c1ccc(C)cc1 (stereo unspecified) [Diethyl-3-cyano-1-p-tolylpropylphosphate (3c)] | 5.96 | 9.61
COc1ccc(C(CCC#N)OP(=O)(OC)OC)cc1 (stereo unspecified) [Dimethyl-3-cyano-1-(4-methoxyphenyl)propylphosphate (3f)] | 23.3 | 36.8
CCOP(=O)(OCC)OC(c1ccccc1)C(C)CC#N (stereo unspecified) [Diethyl-3-cyano-2-methyl-1-phenylpropylphosphate (3g)] | 17.8 | 35.8
COP(=O)(OC)OC(c1ccccc1)C(C)CC#N (stereo unspecified) [Dimethyl-3-cyano-2-methyl-1-phenylpropylphosphate (3h)] | 20.6 | 29.5
CCOP(=O)(OCC)OC(CCC#N)c1ccccc1 (stereo unspecified) [Diethyl-3-cyano-1-phenylpropylphosphate (3a)] | 18.1 | 33.6
COP(=O)(OC)OC(CCC#N)c1ccc(C)cc1 (stereo unspecified) [Dimethyl-3-cyano-1-p-tolylpropylphosphate (3d)] | 16 | 17.3
COP(=O)(OC)OC(CCC#N)c1ccccc1 (stereo unspecified) [Dimethyl-3-cyano-1-phenylpropylphosphate (3b)] | 19.3 | 31.4
